This note sets out measurements from patent US5945450A, “Naphthalene derivative” (Teijin Limited, priority 1994, dated 1999).

Holding throughout (type): cell-based
One test concerns human IgE antibodies. Put plainly: In vitro inhibition of the production of human IgE antibodies (lymphocytes + IL-4 + anti CD40Ab + IL-10, ELISA). The settings on record: Lymphocyte, 3 μM, read-out: Inhibition of antibody production (%) IgE. How it is done: (§1) According to the method described in J. Immunol., 146:1836-1842, 1991 and J. Immunol., 147:8-13, 1991, the concentrations of IgE and IgG antibodies were measured by the procedures described below.
(§2) Peripheral venous blood was sampled from the healthy person, and submitted to density-gradient centrifugation to isolate lymphocytes. The lymphocytes thus obtained were washed and suspended in a culture medium (RPMI-1640 (provided by Gibco)+10% heat-inactivated FCS (Whittaker)+100 µg/ml streptomycin+100 U/ml penicillin+2mM L-glutamine). The cell suspensions were cultured for 1 week in the presence/absence of the compounds of this invention at the concentrations as described in Tables 3-1 to 3-2 together with human interleukin 4 (IL-4, Genzyme)([…]), anti CD40 antibodies (anti CD40Ab, Biosource, clone B-B20)([…]) and human interleukin 10 (IL-10, Genzyme)([…]). The culture medium was supplied freshly to the cell suspension, and the mixture was further cultured for another week. The supernatant was sampled and the concentrations of IgE and IgG antibodies therein were measured by sandwich ELISA.
(§3) The ELISA was based, for the assay of IgE antibodies, on the use of rabbit anti-human IgE() antibodies (ICN) as the primary antibody and biotin-linked anti-human IgE monoclonal antibodies (G7-26, PharMingen) as the secondary antibody. For the assay of IgG antibodies, anti-human IgG monoclonal antibodies (G18-145, PharMingen) and biotin-linked donkey anti-human IgG antibodies (H+L)(Jackson) were used for the primary and secondary antibodies, respectively. For the assay of both IgE and IgG antibodies, Avidin-Biotin-Horse Radish Peroxidase (ABC kit, Vector Lab) and TMB (3,3',5,5'-tetramethylbenzidine) microwell peroxidase substrate system (Kirkegaard & Perry Laboratories Inc.) were used as the enzyme and the substrate, respectively. The assays were made by the use of conventionally known ELISA.
(§4) The inhibitory effect (%) of a given compound of this invention on the production of the antibody was calculated with respect to the concentration of the same antibody when the compound was not coexistent (refer to Uejima et al., American Academy of Allergy and Immunology, Proceedings of 1995 Annual Meeting, Program No. 818).

The subject of a further test is human IgG antibodies. The test is described as follows: In vitro inhibition of human IgG antibody production (lymphocytes + IL-4 + anti CD40Ab + IL-10, ELISA). The settings on record: Lymphocyte, 3 μM. How it is done: as §1, §2, §3, §4
For a further test, the system named is TF (tissue factor). Put plainly: Inhibitory effects on the TF production in LPS-stimulated human peripheral blood monocytes. The settings on record: Monocyte, LPS 1 μg/ml, 16 hours. The protocol: Peripheral venous blood was sampled from the healthy person, and submitted to density-gradient centrifugation so that monocytes might be isolated. The monocytes thus obtained were washed with minimum essential medium (MEM, Gibco) and suspended in a culture medium (RPMI-1640(Gibco)+25 mM HEPES buffer+100 μg/ml streptomycin+100 U/ml penicillin G+2 mM L-glutamine) to give a suspension with a density of 1×10^6 cells/ml. A 0.15 ml of the cell suspension was placed onto each of the wells of a 96-well microplate, to which the compound of this invention as described in Tables 4-1 to 4-2 was added (0.05 ml of the culture medium), and the assembly was placed for 1 hour in a CO2 incubator for cultivation. Then, LPS (lipopolysaccarides, E. coli 0111B4, Difco) 1 μg/ml was added thereto, and the assembly was further cultured for 16 hours. After the supernatant being removed, the residue was washed with physiological saline, 0.1 ml of 16 mM OG (n-octyl-β-D-glucopyranoside) was added thereto, and the assembly was stirred to make TF soluble. A 0.2 ml of physiological saline was added to each residue (final dilution was […]) and this preparation was used for determination of the coagulation stimulating activity (TF-like activity). The test compound had been dissolved in DMSO to give a 0.1 M solution which was diluted with the culture medium prior to use. The final concentration of DMSO was 0.01% or less.
To each well of the microplate, 50 μl of human plasma and 50 μl of the test sample prepared as above for determination of the coagulation stimulating activity, or 50 μl of standard thromboplastin (human thromboplastin, Thromborel S, Behringwerke) were added. The microplate was incubated at 37° C. for 5 minutes, to which was added 25 mM CaCl2 (50 μl/well) containing phosphorous lipids (Platelin, Organon Teknica) at a concentration of […] to initiate coagulation. Coagulation was determined on the basis of absorption at 540 nm, and the measurement lasted 7 to 20 minutes. The data were analyzed with a data analyzing software SOFTMax (Molecular Devices) and the maximum rate time was taken as the coagulation time. The logarithmic values of the coagulation times and standard thromboplastin concentrations are plotted, and a regression parabola was drawn among the dots to give a test curve. From the curve, the inhibitory effect (%) of a given test compound on TF production was calculated. (Refer to J. Imnmunol. Methods, 133:21-29, 1990, and Proc. Natl. Acad. Sci. USA, 89:10370-10374, 1992).

On to `COc1ccc2cc(Oc3ccc(C(=O)Nc4ccccc4C(=O)O)cc3)ccc2c1` [compound 1204], for which the inhibition at 3 µM in the test on human IgE antibodies came out at 64%. Moreover, the inhibition at 3 µM in the test on human IgG antibodies is -11.4%. Besides, in the test with TF (tissue factor), the inhibition at 1 µM came to 75.7%, the inhibition at 3 µM came out at 100% and the inhibition at 10 µM came out at 100%.

Consider `O=C(Nc1ccccc1C(=O)O)c1ccc(Sc2ccc3ccccc3c2)cc1` [compound 3102], for which the inhibition at 3 µM in the test on human IgE antibodies was 19.9%; with human IgG antibodies, -2.8%; in the test on TF (tissue factor) it was 100%.

Take `O=C(Nc1ccccc1C(=O)O)c1ccc(Cc2ccc3ccccc3c2)cc1` [compound 4103]: in the test on human IgE antibodies, the inhibition at 3 µM was 45.5%. Moreover, the inhibition at 3 µM in the test on human IgG antibodies is -4.2%. In the test on TF (tissue factor), the inhibition at 1 µM turned out to be 16.5%, the inhibition at 3 µM was found to be 74.4% and the inhibition at 10 µM turned out to be 100%.

`O=C(Nc1ccccc1C(=O)O)c1ccc(C(=O)c2ccc3ccccc3c2)cc1` [compound 7102]: the inhibition at 3 µM with human IgE antibodies is 15.4%; in the test on human IgG antibodies, 5.4%; in the test with TF (tissue factor), 10.6%. In addition, the inhibition at 10 µM in the test with TF (tissue factor) amounted to 81.1%.
